Source: US20210177861A1, “NRF2 ACTIVATOR FOR THE TREATMENT OF ACUTE LUNG INJURY, ACUTE RESPIRATORY DISTRESS SYNDROME AND MULTIPLE ORGAN DYSFUNCTION SYNDROME” (GLAXOSMITHKLINE INTELLECTUAL PROPERTY DEVELOPMENT LIMITED, priority 2017, published 2021)
“Also recorded” adds a separate entry of the source.

Tests used:
[1] = test system: animals with hyperoxia-induced ALI; details: animals treated with Bardoxolone; cited from earlier work
rats exposed to ozone [2] = experiment: Severe ozone exposure (faulty ventilation, ozone above intended 1 ppm): death and glutathione; assay type: in vivo, rat
Source text: FIG. 5 depicts the protection offered by NRF2 activator Compound I against ozone-induced death (FIG. 5A) and loss of glutathione (FIG. 5B). Due to an unknown faulty ventilation system, ozone in the chamber built up to levels (unable to quantify) above those normally used in other studies. The intended exposure was 1 ppm. For those animals that survived, tissue values of NRF2-related parameters were examined 24 hrs. after ozone exposure. In addition, animals exposed to ozone within the control group were combined. All data represent means±S.E.M. (*, **, *** refer to p<0.05, 0.01 and 0.001, respectively). […]
(§1) In another study, rats were exposed to ozone (2.0 ppm) for a 3 hr period twice a week with a resting period of 2 days between treatments. […] Ozone was generated (Oxycycler ozonator (model# A84ZV, Biospherix Inc., Lacona, N.Y.) by passing room air through the ozonator at a rate of 50-75 cm^3/min, mixing it with filtered room air at a rate of 10 L/min, and flowing this sample into a Plexiglass chamber containing the rodents. Ozone, carbon dioxide and humidity levels in the chamber were constantly monitored (Ozone Monitor Model 450, Teledyne Advanced Pollution Instrumentation, Inc., Thousand Oaks, Calif.). The animals were euthanized as described above 24 hrs after the last exposure to ozone. See FIG. 4-5.

rats exposed to ozone [3] = experiment: Ozone-induced lung injury (1 ppm of ozone for 3 hours); assay type: in vivo, rat; details: 3 μmol/kg i.t. 24 hours prior to 1 ppm ozone for 3 hours, sacrificed four hrs later
Experimental: FIG. 4 depicts the effect of NRF2 activator Compound I on ozone-induced changes in lung wet to dry weight ratio (FIG. 4A) and relative mtDNA copy number (FIG. 4B). Rats were administered the NRF2 activator (3 μmol/kg i.t.) 24 hours prior to ozone exposure (1 ppm of ozone for 3 hours). Four hrs later the animals were sacrificed. All data represent means±S.E.M. (*, **, *** refer to p<0.05, 0.01 and 0.001, respectively).
Age-matched male Lewis rats (250-400 g, Charles River Breeding Laboratories, Wilmington, Mass.) were allowed free access to food and water. Animals were administered NRF2 compound via tracheal instillation 24 hours prior to oxidative insult. […]
as §1, with “4-5. […]” for “4-5.”

mice exposed to ozone = experiment: Repeated ozone exposure, alveolar barrier breakdown (serum surfactant protein-D, mtDNA); assay type: in vivo, mouse; details: FIG. 6
Experimental: Mice were exposed to ozone (1.5 ppm) for 3 hrs, twice per week for 3 weeks. Compound 1 was administered for 5 days/week, with the first dose administered 1 hour prior to first ozone administration. Blood/serum was collected 2 hrs after the final ozone exposure. Surfactant protein-D was measured using a commercially available ELISA kit. All data represent mean+/−S.E.M.
For determination of mtDNA damage (21), 15 ng of DNA in long chain PCR buffer was coupled with appropriate long and short primers for murine tissues. The reaction mixture was essentially the same for both long and short runs with the exception that the [Mg++] was 1.2 and 1.1 mM, respectively. For mouse tissues, the following thermocycler conditions were utilized: 94° C.×2 min followed by 19 cycles at 94° C.×15 sec, 64° C.×30 sec, 68° C.×8 min and finished at 72° C.×7 min; 94° C.×2 min, 94° C.×15 sec, 60° C.×30 sec, 72° C.×45 sec, and finished at 72° C.×7 min for the long and short PCR, respectively. The long and short primer sequences for mouse;
For both species, the long and short PCR products were then diluted 1:10 with Tris EDTA buffer containing 5 μl/ml of Pico Green (Molecular Probes, Invitrogen, Carlsbad Calif.) and fluorescence was monitored (485 nm excitation/528 nm emission, Envision Perkin Elmer, Waltham, Mass.). The replicates for each sample were averaged, the long primer was subtracted from the short primer, and transformed into percent of control using normalization functions (GraphPad Prism v6.0, La Jolla, Calif.). The data were calculated to reflect an increase in damage by subtracting the long primer from the short primer, rather than the opposite which would show the reduction of signal.
Surfactant protein-D (SP-D) was measured using a commercially available kit (Mouse Quantikine SP-D, R&D Systems #MSFPDO, Minneapolis, Minn.). Absorbances were monitored at 450 and 540 nm using a microplate spectrophotometer (Powerwave, BioTek, Winooski, Vt.) with Gen5 software (version 2.03.Ink). […] Degradation or breakdown of alveolar barrier and leakage of water into the alveolar is measured by wet:dry ratio. […]

paraquat-treated rats = experiment: PQ-induced acute lung injury model (tracheal instillation of paraquat); assay type: in vivo, rat
Source text: The model of PQ-induced increase in lung edema formation described in Rumsey, W., et al., (Mutagenesis. 2017, 32(3):343-353) is incorporated by reference in its entirety. In support of this invention, ALI was stimulated by the tracheal instillation of PQ which damages mtDNA in lung cells and provokes a loss of epithelial/endothelial integrity and edema formation.
Age-matched male Lewis rats (250-400 g, Charles River Breeding Laboratories, Wilmington, Mass.) were allowed free access to food and water. Animals were administered NRF2 compound via tracheal instillation 24 hours prior to oxidative insult.
For studies using PQ (or N,N′-dimethyl-4,4′-[…], Sigma Aldrich, St Louis, Mo.) as the toxin, aliquots were prepared in sterile phosphate-buffered saline (PBS) and instilled directly to the trachea of the rat while under isoflurane anesthesia. Rats were anesthetized in a small acrylic induction box with 2-5% isoflurane gas. When surgical anesthesia was obtained (assessed by loss of the righting reflex followed by use of the pedal withdrawal reflex), the rat was removed from the box and placed supine on a head up, tilted platform. The trachea was illuminated and either PQ or vehicle (300 μl, doses identified in figure legends) was directly instilled into the trachea, anterior to the primary bifurcation at the carina, using a blunt-tipped needle. The animal was returned to a recovery cage, where the righting reflex was regained in 2-3 minutes.
To monitor changes in airway mechanics, rats were placed into individual plethysmograph chambers (BUXCO Electronics, Troy, N.Y.). Fresh air was supplied by bias flow pumps to the chambers. Baseline respiratory (Penh) values were collected prior to administration of PQ and on succeeding days after administration of the agent. An average Penh was calculated for a period of 5 min where enhanced pause (Penh=[(expiratory time/relaxation time)−1]×(peak expiratory flow/peak inspiratory flow)) and relaxation time is the amount of time required for 70% of the tidal volume to be expired.
For measurements of edema formation in the lungs, the tissue was excised and weighed gravimetrically. A portion was dried overnight in an oven at […]. and weighed for dry weight.
In some studies, bronchoalveolar lavage was performed to identify the immune cells infiltrating the lung in response to the toxicant. After the animals were euthanized (Fatal Plus, 100 mg/kg i.p.), the trachea was surgically exposed and a blunt-tipped needle was inserted into the trachea for administration of lavage fluid (5×5 ml Dulbecco's phosphate buffered saline, PBS). The lavage fluid was collected, placed on ice and centrifuged (3000 rpm×10 min, Beckman-Coulter, Danvers, Mass.). Supernatant was aspirated and frozen whereas the pellet was resuspended in 5 ml of PBS. An aliquot (100 μl) was centrifuged (300 rpm×5 min, cytospin, Thermo-Shandon, Waltham, Mass.) and a separate sample prepared as 1:5 dilution for total cell counts using a hemocytometer. Aliquots of cells were placed on slides and stained (Kwik-Diff-Quick, Thermo-Shandon, Waltham, Mass.) according to manufacturer's instructions. At least 200 cells were counted and percentages of different cell types were calculated (macrophages and neutrophils).
For extraction of either RNA or DNA, the tissue was added to lysis buffer (Kingfisher DNA or RNA extraction kit, Thermo Fisher Scientific, Waltham, Mass.) and the samples were processed according to the manufacturer's instructions. The nucleotide quantities were determined with respective Qubit kits (Thermo Fisher, Waltham, Mass.). For measurement of mtDNA copy number by quantitative real time PCR, nuclear and mitochondrial primer sets (1 pmol/μl), and 2× SYBR green master mix (Life Technologies, Waltham, Mass.) were added to 50 ng of DNA combined with water (total 20 ul). […]

[4] = test system: murine model of PQ-induced ALI; details: treatment with DNasel; cited from earlier work
[5] = relative to the PQ treated vehicle control animals, FIG. 3

CC1(C)CC[C@]2(C(=O)O)CC[C@]3(C)[C@H](C(=O)C=C4[C@@]5(C)C=C(C#N)C(=O)C(C)(C)[C@@H]5CC[C@]43C)[C@@H]2C1 [Bardoxolone]
protection from hyperoxia-induced ALI [1]: protected them from hyperoxia-induced ALI

CC[C@@H]1CN(Cc2cc([C@H](CC(=O)O)c3ccc4c(nnn4CC)c3C)ccc2C)S(=O)(=O)c2cccnc2O1 [Compound I, (S)-3-(3-(((R)-4-ethyl-1,1-dioxido-3,4-dihydro-2H-pyrido[2,3-b][1,4,5]oxathiazepin-2-yl)methyl)-4-methylphenyl)-3-(1-ethyl-4-methyl-1H-benzo[d][1,2,3]triazol-5-yl)propanoic acid]
ozone-induced death (survival) (rats exposed to ozone [2]; severe ozone exposure, level unable to quantify (intended 1 ppm), FIG. 5A): protection; also recorded: survive the lethal insult | ozone-induced loss of glutathione (rats exposed to ozone [2]; surviving animals, tissue 24 hrs after ozone exposure, FIG. 5B): protection | ozone-induced edema formation (lung wet to dry weight ratio) (rats exposed to ozone [3]; FIG. 4A): protected | ozone-induced mtDNA damage (relative mtDNA copy number) (rats exposed to ozone [3]; FIG. 4B): protected | degradation or breakdown of the alveolar barrier (mice exposed to ozone; mice, ozone 1.5 ppm 3 hrs twice per week for 3 weeks): prevented; also recorded: protective effect | surfactant D (serum surfactant protein-D), biomarker of epithelial/alveolar barrier integrity (mice exposed to ozone; mice, ozone 1.5 ppm 3 hrs twice per week for 3 weeks, dosing 5 days/week, serum 2 hrs after final ozone exposure): dose dependently prevented | changes in mtDNA (mice exposed to ozone; repeated ozone exposures): dose dependently prevented | inflammatory immune cells in bronchoalveolar lavage fluid (macrophages and neutrophils) (paraquat-treated rats; paraquat-treated rats, FIG. 2): decreased numbers of immune cells in the bronchoalveolar lavage fluid; also recorded: reduction in inflammatory immune cells | NQO1 activity (NRF2-mediated gene expression) (paraquat-treated rats; rat lung, PQ-treated, FIG. 3B): stimulated an upregulation of NQO1 activity | DNA oxidation (8-OHdG levels) (paraquat-treated rats; rat lung, PQ-treated, FIG. 3C): attenuating the impact of PQ on DNA oxidation | PQ-mediated mtDNA damage (relative mtDNA copy number) (paraquat-treated rats; rat lung, FIG. 3A): blockade of mtDNA damage; also recorded: prevented | lung function, expressed as Penh (paraquat-treated rats; rats, Compound I suspension i.t. 24 hrs prior to PQ (0.05 mg/kg i.t.), FIG. 1A): improves lung function | lung edema formation, lung wet:dry weight ratio (paraquat-treated rats; rats, Compound I suspension i.t. 24 hrs prior to PQ (0.05 mg/kg i.t.), FIG. 1B): maintenance of the lung wet:dry ratio; also recorded: protecting against the PQ-induced increase in lung edema formation | TXNRD1 gene expression (paraquat-treated rats; [5]): exception | expression of other NRF2 genes (GCLC, HO-1, etc.) (paraquat-treated rats; [5]): up-regulated

B1: DNasel: DNasel, presumably targeting expulsed mtDNA (protein, UniProt P24855 23-282, looked up)
Deoxyribonuclease-1: LKIAAFNIQTFGETKMSNATLVSYIVQILSRYDIALVQEVRDSHLTAVGKLLDNLNQDAPDTYHYVVSEPLGRNSYKERYLFVYRPDQVSAVDSYYYDDGCEPCGNDTFNREPAIVRFFSRFTEVREFAIVPLHAAPGDAVAEIDALYDVYLDVQEKWGLEDVMLMGDFNAGCSYVRPSQWSSIRLWTSPTFQWLIPDSADTTATPTHCAYDRIVVAGMLLRGAVVPDSALPFNFQAAYGLSDQLAQAISDHYPVEVMLK
PQ-induced lung injury and survival [4]: Protection from PQ-induced lung injury and survival
